Literature values, collected in PMC8909834, “An Orally Bioavailable and Highly Efficacious Inhibitor of CDK9/FLT3 for the Treatment of Acute Myeloid Leukemia” (Cancers, 2022).

Test system: CDK9
Details: cited from earlier work; for selectivity over other CDKs: CDK9 vs other CDKs

CC(=O)N[C@@H]1CCC[C@H](C(=O)Nc2cc(-c3cnn4c3CC(C)(C)C4)c(Cl)cn2)C1 [ADZ4573]
selectivity over other CDKs: > 10 fold
IC50: < 4 nM
